From patent US5883243A, “Non-reducing saccharides, their preparations and uses” (Kabushiki Kaisha Hayashibara Seibutsu Kagaku Kenkyujo, priority 1997, dated 1999)

Columns and labels:
[1] = system: crude glucosyltransferase specimen derived from Streptococcus sobrinus strain (ATCC 27351); test: Inhibition of insoluble glucan formation by glucosyltransferase from dental caries-inducing microorganism; type: biochemical; conditions: for Yield of non-adsorbed glucans / Yield of adsorbed glucans: sucrose plus test saccharide (one ml of one w/v % each), pH 6.8, 37° C., 16 hours; for Yield of non-adsorbed glucans: sucrose alone 923; for Yield of adsorbed glucans: sucrose alone 1,160
Method: To a mixture solution consisting of one ml of one w/v % sucrose solution, one ml of one w/v % of a test saccharide solution, and 1.5 ml of 0.1M phosphate buffer (pH 6.8) was added 0.5 ml solution containing a crude glucosyltransferase specimen in a total protein content of 10 mg, and the mixture solution was placed in a small test tube which was then fixed and slanted to give a grade 30 degrees and allowed to react at 37° C. for 16 hours. The reaction mixture was transferred gently to another test tube and mixed with a solution obtained by washing carefully with 4 ml water the remaining substances adhered to the inner walls of the small test tube, and the mixture solution was centrifuged to obtain a precipitate as a non-adsorbed glucan. The amounts of the adsorbed- and non-adsorbed glucans thus obtained were respectively quantified by the anthrone-sulfuric acid method, and the total amount of them was regarded as the amount of the formed insoluble glucans. As a control system, a reaction system using water in place of the test saccharide solution, i.e. a reaction system using sucrose as a saccharide, was provided.

[2] = system: Clostridium butyricum JCM 1391; type: cell-based; conditions: 0.5 w/v % saccharide in PYF broth, 37° C., 96 hours
[3] = system: Lactobacillus fermentum IFO 3959; test: Assimilation test by intestinal microorganism; type: cell-based; conditions: 0.5 w/v % saccharide in PYF broth, 37° C., 96 hours
[4] = system: Peptostreptococcus prevotii ATCC 9321; test: Assimilation test by intestinal microorganism; type: cell-based; conditions: 0.5 w/v % saccharide in PYF broth, 37° C., 96 hours
[5] = system: Bifidobacterium bifidum JCM 1255; test: Assimilation test by intestinal microorganism; type: cell-based; conditions: 0.5 w/v % saccharide in PYF broth, 37° C., 96 hours
[6] = system: Bifidobacterium infantis JCM 1222; test: Assimilation test by intestinal microorganism; type: cell-based; conditions: 0.5 w/v % saccharide in PYF broth, 37° C., 96 hours
[7] = system: Bacteroides distasonis JCM 5825; test: Assimilation test by intestinal microorganism; type: cell-based; conditions: 0.5 w/v % saccharide in PYF broth, 37° C., 96 hours
[8] = system: Streptococcus faecalis IAM 10065; test: Assimilation test by intestinal microorganism; type: cell-based; conditions: 0.5 w/v % saccharide in PYF broth, 37° C., 96 hours
[9] = system: Clostridium perfringens JCM 3816; type: cell-based; conditions: 0.5 w/v % saccharide in PYF broth, 37° C., 96 hours
[10] = system: Escherichia coli IFO 3301; test: Assimilation test by intestinal microorganism; type: cell-based; conditions: 0.5 w/v % saccharide in PYF broth, 37° C., 96 hours
[11] = Maillard reaction (coloration with glycine); type: physicochemical; conditions: 10 w/v % saccharide, one w/v % glycine, 50 mM phosphate buffer pH 7.0, 100° C., 90 min; 1-cm cell
[12] = system: Eubacterium aerofaciens ATCC 25986; test: Assimilation test by intestinal microorganism; type: cell-based; conditions: 0.5 w/v % saccharide in PYF broth, 37° C., 96 hours
[13] = system: Clostridium ramosum JCM 1298; test: Assimilation test by intestinal microorganism; type: cell-based; conditions: 0.5 w/v % saccharide in PYF broth, 37° C., 96 hours
[14] = system: Bifidobacterium longum JCM 1217; test: Assimilation test by intestinal microorganism; type: cell-based; conditions: 0.5 w/v % saccharide in PYF broth, 37° C., 96 hours
[15] = system: Bacteroides vulgatus JCM 5826; test: Assimilation test by intestinal microorganism; type: cell-based; conditions: 0.5 w/v % saccharide in PYF broth, 37° C., 96 hours
[16] = system: Streptococcus sobrinus ATCC 27351; test: Acid formation by dental caries-inducing microorganisms; conditions: living wet cells, 0.02M saccharide, Stephen buffer pH 7.0, 37° C.; for pH at each fermentation time (min): 0: 0 min; for pH at each fermentation time (min): 5: 5 min; for pH at each fermentation time (min): 15: 15 min; for pH at each fermentation time (min): 30: 30 min; for pH at each fermentation time (min): 60: 60 min; for pH at each fermentation time (min): 90: 90 min
[17] = system: Bifidobacterium animalis JCM 1190; test: Assimilation test by intestinal microorganism; type: cell-based; conditions: 0.5 w/v % saccharide in PYF broth, 37° C., 96 hours
[18] = system: Bifidobacterium breve JCM 1192; test: Assimilation test by intestinal microorganism; type: cell-based; conditions: 0.5 w/v % saccharide in PYF broth, 37° C., 96 hours
[19] = system: Bacteroides uniformis JCM 5828; test: Assimilation test by intestinal microorganism; type: cell-based; conditions: 0.5 w/v % saccharide in PYF broth, 37° C., 96 hours
[20] = system: Lactobacillus plantarum IFO 3070; test: Assimilation test by intestinal microorganism; type: cell-based; conditions: 0.5 w/v % saccharide in PYF broth, 37° C., 96 hours
[21] = system: Bifidobacterium adolescentis JCM 1275; test: Assimilation test by intestinal microorganism; type: cell-based; conditions: 0.5 w/v % saccharide in PYF broth, 37° C., 96 hours
[22] = system: Clostridium sporogenes JCM 1416; test: Assimilation test by intestinal microorganism; type: cell-based; conditions: 0.5 w/v % saccharide in PYF broth, 37° C., 96 hours, free of sugar: ±
Method: (§1) To evaluate the growth rate of and to judge the assimilability by the microorganisms, the resultant broth was diluted 5-fold, and the turbidity of the dilution was measured at a wavelength of 750 nm in a 1-cm light-path cell. […] The criteria were in Table 3, and the results were in Tables 4 and 5: […]

[23] = system: Enzyme from small intestinal mucus membrane; conditions: enzymes of small intestinal mucus membranes
[24] = system: bifid bacteria; test: Assimilation test by intestinal microorganism, overall judgement; type: cell-based; conditions: results of Tables 4 and 5
Method: as §1

| SMILES | Judgement of assimilation (turbidity at a wavelength of 750 nm × 5) [3] | Judgement of assimilation (turbidity at a wavelength of 750 nm × 5) [4] | Judgement of assimilation (turbidity at a wavelength of 750 nm × 5) [5] | Judgement of assimilation (turbidity at a wavelength of 750 nm × 5) [6] | Judgement of assimilation (turbidity at a wavelength of 750 nm × 5) [7] | Judgement of assimilation (turbidity at a wavelength of 750 nm × 5) [8] | Judgement of assimilation (turbidity at a wavelength of 750 nm × 5) [10] | Judgement of assimilation (turbidity at a wavelength of 750 nm × 5) [12] | Judgement of assimilation (turbidity at a wavelength of 750 nm × 5) [13] | Judgement of assimilation (turbidity at a wavelength of 750 nm × 5) [14] | Judgement of assimilation (turbidity at a wavelength of 750 nm × 5) [15] | pH at each fermentation time (min): 0 [16] | pH at each fermentation time (min): 5 [16] | pH at each fermentation time (min): 15 [16] | pH at each fermentation time (min): 30 [16] | pH at each fermentation time (min): 60 [16] | pH at each fermentation time (min): 90 [16] | Judgement of assimilation (turbidity at a wavelength of 750 nm × 5) [17] | Judgement of assimilation (turbidity at a wavelength of 750 nm × 5) [18] | Judgement of assimilation (turbidity at a wavelength of 750 nm × 5) [19] | other results |
| --- | --- | --- | --- | --- | --- | --- | --- | --- | --- | --- | --- | --- | --- | --- | --- | --- | --- | --- | --- | --- | --- |
| OC[C@H]1O[C@H](O[C@H]2O[C@H](CO)[C@@H](O)[C@H](O)[C@H]2O)[C@H](O)[C@@H](O)[C@@H]1O [Trehalose, trehalose, reference compound] | + (0.15 or higher but less than 0.2) | + (0.15 or higher but less than 0.2) | + (0.15 or higher but less than 0.2) | - (Less than 0.1) | ++ (0.2 or higher but less than 0.3) | + (0.15 or higher but less than 0.2) | - (Less than 0.1) | - (Less than 0.1) | + (0.15 or higher but less than 0.2) | ++ (0.2 or higher but less than 0.3) | + (0.15 or higher but less than 0.2) | 7.0 | 6.7 | 5.3 | 4.7 | 4.3 | 4.2 | + (0.15 or higher but less than 0.2) | - (Less than 0.1) | ++ (0.2 or higher but less than 0.3) | Yield of non-adsorbed glucans [1]: 1,130 μg/ml; Yield of adsorbed glucans [1]: 772 µg/mL; Inhibitory percentage (%) on insoluble glucans' formation ([1]; sucrose plus test saccharide, versus sucrose alone): 8.7%; Judgement of assimilation (turbidity at a wavelength of 750 nm × 5) [2]: +++ (0.3 or higher); Judgement of assimilation (turbidity at a wavelength of 750 nm × 5) [9]: +++ (0.3 or higher); Coloration degree (at a wavelength of 480 nm) [11]: 0.007; Judgement of assimilation (turbidity at a wavelength of 750 nm × 5) [20]: ++ (0.2 or higher but less than 0.3); Judgement of assimilation (turbidity at a wavelength of 750 nm × 5) [21]: + (0.15 or higher but less than 0.2) |
| OC[C@H]1O[C@H](OC[C@H]2OC(O)[C@H](O)[C@@H](O)[C@@H]2O)[C@H](O)[C@@H](O)[C@@H]1O (some centres unmarked) [Isomaltose, isomaltose, reference compound] | - (Less than 0.1) | - (Less than 0.1) | + (0.15 or higher but less than 0.2) | +++ (0.3 or higher) | + (0.15 or higher but less than 0.2) | + (0.15 or higher but less than 0.2) | - (Less than 0.1) | + (0.15 or higher but less than 0.2) | - (Less than 0.1) | ++ (0.2 or higher but less than 0.3) | - (Less than 0.1) | 7.0 | 7.0 | 6.9 | 6.9 | 6.8 | 6.7 | +++ (0.3 or higher) | +++ (0.3 or higher) | - (Less than 0.1) | Judgement of assimilation (turbidity at a wavelength of 750 nm × 5) [22]: ± (0.1 or higher but less than 0.15); Judgement of assimilation (turbidity at a wavelength of 750 nm × 5) [9]: ± (0.1 or higher but less than 0.15); Judgement of assimilation (turbidity at a wavelength of 750 nm × 5) [20]: - (Less than 0.1); Judgement of assimilation (turbidity at a wavelength of 750 nm × 5) [21]: +++ (0.3 or higher) |
| OC[C@H]1O[C@H](OC[C@H]2O[C@H](OC[C@H]3O[C@H](O[C@H]4O[C@H](CO)[C@@H](O)[C@H](O)[C@H]4O)[C@H](O)[C@@H](O)[C@@H]3O)[C@H](O)[C@@H](O)[C@@H]2O)[C@H](O)[C@@H](O)[C@@H]1O [α-Isomaltotriosyl α-glucoside, O-α-D-glucopyranosyl-(1→6 )-O-α-D-glucopyranosyl-(1→6)-α-D-glucopyranosyl α-D-glucopyrandside] | - (Less than 0.1) | ± (0.1 or higher but less than 0.15) | ++ (0.2 or higher but less than 0.3) | ++ (0.2 or higher but less than 0.3) | - (Less than 0.1) | - (Less than 0.1) | - (Less than 0.1) | - (Less than 0.1) | - (Less than 0.1) | +++ (0.3 or higher) | - (Less than 0.1) | 7.0 | 7.0 | 6.9 | 6.9 | 6.9 | 6.9 | +++ (0.3 or higher) | +++ (0.3 or higher) | - (Less than 0.1) | Yield of non-adsorbed glucans [1]: 269 µg/mL; Yield of adsorbed glucans [1]: 66 µg/mL; Judgement of assimilation (turbidity at a wavelength of 750 nm × 5) [2]: +++ (0.3 or higher); Digestibility, judgement in words [23]: relatively-low in digestibility; Coloration degree (at a wavelength of 480 nm) [11]: 0.019; Selective assimilability by bifid bacteria, in words [24]: high in the selective assimilability by bifid bacteria; Judgement of assimilation (turbidity at a wavelength of 750 nm × 5) [20]: - (Less than 0.1); Judgement of assimilation (turbidity at a wavelength of 750 nm × 5) [21]: +++ (0.3 or higher) |
| OC[C@H]1O[C@@](CO)(O[C@H]2O[C@H](CO)[C@@H](O)[C@H](O)[C@H]2O)[C@@H](O)[C@@H]1O [Sucrose, sucrose, reference compound] | – | – | – | – | – | – | – | – | – | – | – | 7.0 | 4.3 | 4.1 | 4.0 | 4.0 | 4.0 | – | – | – | – |
